Data from US20220395464A1, “ORALLY ADMINISTERED SOLID DOSAGE FORM DRUG” (ASCENTAWITS PHARMACEUTICALS, LTD., priority 2019, published 2022).
Where “and” joins values, the source holds several entries; their conditions need not be identical. Equal entries are not always repeated. Where two headings read alike, the source gives them in different places.

Assays:
[1] = Pharmacokinetics after single intravenous drip infusion, plasma LC-MS/MS; type: in vivo, Philippine macaques; conditions: male, plasma, 0.58 mg/kg, plasma; for Tmax: read-out: Tmax, Mean
Method: AST-3424 and AST-3424-D6 (i.e. the compound of formula I) were administered to Philippine macaques by intravenous drip infusion, and blood samples were collected at different appointed times. LC-MS/MS was used to determine concentrations of the test substances in plasma of the Philippine macaques after administration, and relevant pharmacokinetic parameters were calculated.
Preparation method: 0.447 ml of AST-3424 (0.2 mg/ml) and 0.481 ml of AST-3424-D6 (0.2 mg/ml) were added into 104.272 ml of the dissolvent, respectively, and mixed for 5 minutes to obtain colorless and clarified solutions with pH 7.0.
The four male Philippine macaques were purchased from Guangxi Xiongsen Primate Development Experiment Co., Ltd. All Philippine macaques were healthy with qualified medical examination and no abnormality. Three of animals were used for the experiment, and one of them was used to prepare blank plasma.
About 0.8 ml of blood samples were collected through femoral vein and anticoagulated with heparin sodium. Appointed times of blood collection were before administration, 0.17, 0.25, 0.5, 0.75, 1, 2, and 4 hours after administration.
The blood samples were placed on ice after collection. Next, plasma samples were separated by centrifugation, and centrifugation conditions were 3500 rpm for 10 minutes at 4° C. Then, the collected plasma samples were stored at −80° C. until analysis. The plasma samples were analyzed by LC-MS/MS by an analysis department of an experimental institution. Besides, Lower limit of quantifications (LLOQ) of AST-3424 and AST-3424-D6 detection were 1 ng/ml. The accuracy of analysis results of an accompanying standard curve and a quality control samples all met the relevant requirements of biological analysis (the accuracy of the quality control samples exceeding 66.7% was between 85˜115%) in a process of the sample detection.
According to average blood concentration data of each group at each appointed time, the pharmacokinetic parameters of the compounds were respectively computed by a pharmacokinetic computing software, a non-compartmental model. In addition, the pharmacokinetic parameters were AUC0-t, AUC0-∞, MRT0-∞, Cmax, Tmax, t1/2, etc. In the case of the concentrations of the samples whose concentration being lower than a lower limit of quantification, the following schemes were used to compute the pharmacokinetic parameters. The samples sampled before reaching Cmax shall be computed as zero value, while the samples sampled after reaching Cmax shall be computed as non-quantifiable (marked as “BLQ”).
After a single intravenous infusion of the compounds AST-3424 and AST-3424-D6 was administered to the Philippine macaques, the whole blood samples of the corresponding animals were collected at the appointed times. Next, the whole blood samples were processed and biologically analyzed to obtain concentrations of the compounds in the plasma at the different appointed times. Results of the assay were listed in Table 14 below, and corresponding means of the plasma-drug concentration-time curves are shown in FIG. 3.
According to the plasma-drug concentration data of each drug group, the pharmacokinetic parameters of each compound group were computed using the non-compartmental model of the pharmacokinetic computing software. The pharmacokinetic

[2] = Stability in hepatomicrosome with NADPH (LC-MS/MS); type: in vitro ADME, human; conditions: for % Remaining: human hepatomicrosome 0.5 mg/ml, NADPH 2 mM, 37° C., Sample 1, Sample 2
Method: The compounds, hepatomicrosome and reduced coenzyme NADPH were mixed together. Besides, a final concentration of the hepatomicrosome was 0.5 mg/ml, and human, male and mixed types of the hepatomicrosome were purchased. A final concentration of the NADPH was 2 mM. Next, the preceding mixtures were incubated in buffer (100 mM KH2PO4—K2HPO4) at 37° C. for 0, 5, 15, 30, 45, and 60 minutes, respectively. At the appointed incubation time, the reaction was terminated by the addition of an internal standard solution. Finally, the samples were centrifuged and the supernatant was taken for detection by LC-MS/MS.
Through mass spectrometry analysis, a concentration of the compounds in each sample was expressed by a peak-area ratio (a ratio of the peak-area of the compound to a peak-area of the internal standard). Then, each remaining percentage of the compounds (% Remaining) at each appointed incubation time was calculated with a reference that 0 minute at each concentration of the compounds. In logarithm of the remaining percentage was fitted linearly with the appointed incubation times, and a half-life and an intrinsic clearance were calculated according to the following formulas.
The remaining percentage (% Remaining)=(a peak area ratio at a certain appointed time (PARappointed time)/a peak area ratio at 0 minute (PAR0-mm)×100 (PAR: peak area ratio)
The elimination rate constant (k)=a negative of a slope (-gradient)
In vitro clearance (CLint, in vitro) (ml/min/mg)=k/c (c: a concentration of hepatomicrosome in the incubation system)

[3] = Philippine macaque, intravenous, AST-3424 intravenous drip infusion 0.58 mg/kg, individual animals 101, 102, 103, read-out: Plasma-drug concentration
[4] = Philippine macaque, intravenous, AST-3424 intravenous drip infusion 0.58 mg/kg, read-out: Plasma-drug concentration, mean

- Stability parameter k (elimination rate constant) ([2]; human hepatomicrosome): 0.0606 min⁻¹
- % Remaining ([2]; 0 minutes): 101.36% and 98.64%
- % Remaining ([2]; 5 minutes): 77.67% and 80.00%
- % Remaining ([2]; 15 minutes): 45.83% and 47.38%
- % Remaining ([2]; 30 minutes): 17.86% and 16.93%
- % Remaining ([2]; 45 minutes): 6.52% and 6.95%
- % Remaining ([2]; 60 minutes): 2.64% and 2.68%
- % Remaining, Average ([2]; human hepatomicrosome, 0 minutes): 100.00%
- % Remaining, Average ([2]; human hepatomicrosome, 5 minutes): 78.83%
- % Remaining, Average ([2]; human hepatomicrosome, 15 minutes): 46.60%
- % Remaining, Average ([2]; human hepatomicrosome, 30 minutes): 17.40%
- % Remaining, Average ([2]; human hepatomicrosome, 45 minutes): 6.74%
- % Remaining, Average ([2]; human hepatomicrosome, 60 minutes): 2.66%
- half-life ([2]; male, liver microsomes (hepatomicrosome), human hepatomicrosome, read-out: Stability parameter (t1/2)): 11.4 min
Structure (SMILES): C[C@H](OP(=O)(N1CC1)N1CC1)c1ccc([N+](=O)[O-])c(Oc2cccc(C(=O)N(C)C)c2)c1 [AST-3424, (S)-1-(3-(3-N,N-Dimethylaminocarbonyl)phenoxy-4-nitrophenyl)-1-ethyl-N,N′-bis(ethylene) phosphoramidate]
- Tmax ([1]; Philippine macaque, cynomolgus monkey, iv, AST-3424 0.58 mg/kg single intravenous infusion): 18.6 min
- Vd ([1]; Philippine macaque, cynomolgus monkey, iv, AST-3424 0.58 mg/kg single intravenous infusion, read-out: Vz, Mean): 0.306 L/kg
- concentration at 0.17 hr [1, 3]: 638 ng/mL
- concentration at 0.17 hr [1, 4]: 708 ng/mL
- concentration at 0.25 h [1, 3]: 649 ng/mL
- concentration at 0.25 h [1, 4]: 691 ng/mL
- concentration at 0.5 h [1, 3]: 677 ng/mL
- concentration at 0.5 h [1, 4]: 695 ng/mL
- concentration at 0.75 h [1, 3]: 152 ng/mL
- concentration at 0.75 h [1, 4]: 143 ng/mL
- concentration at 1 h [1, 3]: 57.3 ng/mL
- concentration at 1 h [1, 4]: 46.6 ng/mL
- concentration at 2 h ([1]; Philippine macaque, intravenous, AST-3424 intravenous drip infusion 0.58 mg/kg, 2 hr, individual animals 101, 102, 103, LLOQ 1 ng/ml, read-out: Plasma-drug concentration): 1.29 ng/mL
- concentration at 2 hr ([1]; Philippine macaque, intravenous, AST-3424 intravenous drip infusion 0.58 mg/kg, 2 hr, read-out: Plasma-drug concentration, mean): 1.4 ng/mL
- MRT last ([1]; cynomolgus monkey, iv, AST-3424 0.58 mg/kg single intravenous infusion, individual animals 101, 102, 103, read-out: MRT(0−t)): 7.8 min
- MRT inf ([1]; cynomolgus monkey, iv, AST-3424 0.58 mg/kg single intravenous infusion, individual animals 101, 102, 103, read-out: MRT(0−∞)): 8.4 min
- Tmax ([1]; cynomolgus monkey, iv, AST-3424 0.58 mg/kg single intravenous infusion): 18.4 min
- Vd ([1]; cynomolgus monkey, iv, AST-3424 0.58 mg/kg single intravenous infusion, read-out: Vss, Mean): 0.226 L/kg
